Earlier results as cited in publication PMC2229313 (The Journal of General Physiology, 1996).

Tested on: IFM/QQQ mutant Na channel
Details: cytoplasmic application; ref Eaholtz et al., 1994

With KIQMK as the substance, how does the “effect on kinetics of IFM/QQQ mutant Na currents” value read?
The value was “fails to affect the kinetics of the inactivation-impaired Na channel”.
